Measured values reported in US20040247700A1 (priority 2001, published 2004).
Where “and” joins values, the source holds several entries; their conditions need not be identical. Equal entries are not always repeated. Where two headings read alike, the source gives them in different places.

Experiments:
COX-2 over COX-1 = conditions: reported, background; cited from earlier work
COX-2 = target: T1, COX-2 (Mus musculus, UniProt Q05769); test: cell-based
T1 construct: LPS, which was used to induce the expression of COX-2 in the RAW 264.7 cells; host or cells: RAW 264.7 (murine), LPS-stimulated
T1 sequence (Q05769 18-604): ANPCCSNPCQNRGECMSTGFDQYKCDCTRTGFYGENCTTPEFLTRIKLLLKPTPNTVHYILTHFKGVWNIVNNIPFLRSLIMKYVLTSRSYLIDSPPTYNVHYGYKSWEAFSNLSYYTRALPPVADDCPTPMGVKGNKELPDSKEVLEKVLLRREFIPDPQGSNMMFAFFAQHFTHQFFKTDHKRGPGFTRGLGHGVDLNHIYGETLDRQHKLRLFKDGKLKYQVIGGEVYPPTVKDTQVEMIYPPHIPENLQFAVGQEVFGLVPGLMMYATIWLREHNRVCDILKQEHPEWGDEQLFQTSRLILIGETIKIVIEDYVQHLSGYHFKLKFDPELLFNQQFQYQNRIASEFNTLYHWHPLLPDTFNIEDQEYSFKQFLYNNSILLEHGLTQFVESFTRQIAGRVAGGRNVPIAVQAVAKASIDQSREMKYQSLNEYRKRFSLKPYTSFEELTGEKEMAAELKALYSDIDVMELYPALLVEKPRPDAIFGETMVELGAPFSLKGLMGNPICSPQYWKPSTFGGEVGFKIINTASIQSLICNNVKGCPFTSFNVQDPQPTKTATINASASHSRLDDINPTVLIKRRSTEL
Protocol: The DMEM growth medium was made as follows 50 mL of heat inactivated FBS and 5 mL of penicillin/streptomycin were added to a 500 mL bottle of DMEM and stored at 4° C. This was warmed to 37° C. in a water bath before use and for best results should be used within three months.
On day one of the experiment, the log phase 264.7 cells were plated at 8×10^4 cells per well in 0.2 mL growth medium per well in a 96-well tissue culture plate. After 6 to 8 hours post plating, 100 μL fresh medium. […] It was mixed until dissolved and stored at 4° C. Immediately before use, it was thawed at room temperature or in a 37° C. water bath. A new solution was prepared every 60 days.
On day two of the experiment, the test materials were prepared as 1000× stock in DMSO. For example, if the final concentration of the test material was to be 10 μg/mL, a 10 mg/mL stock was prepared by dissolving 10 mg of the test material in 1 mL of DMSO. Fresh test materials were prepared on day 2 of the experiment. In 1.7 mL microfuge tubes, 1 mL DMEM without FBS was added to obtain test concentrations of 0.05, 0.10, 0.5, and 1.0 μg/mL. 2 μL of the 1000×DMSO stock of the test material was added to the 1 mL of medium without FBS. The tube contained the final concentration of the test material was concentrated 2-fold. The tube was placed in incubator for 10 minutes to equilibrate.
One-hundred mL of medium was removed from each well of the cell plates prepared on day one. One-hundred mL of equilibrated 2× final concentration the test compounds were added to cells and incubated for 90 minutes. LPS in DMEM without FBS was prepared by adding 44 μL of the 1 mg/mL DMSO to 10 mL of medium. For each well of cells to be stimulated, 20 μL of LPS (final concentration of LPS is 0.4 μg/mL of LPS) was added.
Determination of PGE2 Concentration in Medium
Equipment—freezer, 30° C.
General Procedure—EIA Buffer was prepared by diluting the contents of the EIA Buffer Concentrate (vial #4) with 90 ml of Ultra-pure water. Vial #4 was rinsed several times to ensure all crystals had been removed and was then placed into a 100 mL storage bottle and stored at 4° C.
The Wash Buffer was prepared by diluting Wash Buffer Concentrate (vial #5) 1:400 with Ultra-pure water. 0.5 ml/liter of Tween 20 (vial #5a) was then added (using a syringe for accurate measurement). For one liter Wash Buffer add 2.5 ml Wash Buffer Concentrate, 0.5 ml Tween-20, and 997 ml Ultra-pure water. The solution was stored in a 1 liter storage bottle at 4° C.
The Prostaglandin E2 standard was reconstituted as follows. A200 μL pipet tip was equilibrated by repeatedly filling and expelling the tip several times in ethanol. The tip was used to transfer 100 μL of the PGE2 Standard (vial #3) into a 1.7 mL microfuge tube. 900 μL Ultra-pure water was added to the tube and stored at 4° C., which was stable for ˜6 weeks. The Prostaglandin E2 acetylcholinesterase tracer was reconstituted as follows. 100 μL PGE2 tracer (vial #2) was mixed with 30 mL of the EIA Buffer in a 50 mL centrifuge tube and stored at 4° C.
The Prostaglandin E2 monoclonal antibody was reconstituted as follows. 100 μL PGE2 Antibody (vial #1) was mixed with 30 mL of the EIA buffer in a 50 mL centrifuge tube and stored at 4° C.
DMEM with penicillin/streptomycin was prepared by adding 5 mL penicillin/streptomycin into 5 mL DMEM and stored at 4° C.
The plates were set up as follows: Each plate contained a minimum of two blanks (B), two non-specific binding wells (NSB), two maximum binding wells (B0), and an eight point standard curve run in duplicate (S1-S8).

COX-1 enzyme (ovine) = target: T2, COX-1 enzyme (ovine) (Ovis aries, UniProt P05979); test: COX-1 enzyme inhibition (COX-1 synthesis of PGE2); type: biochemical
T2 construct: purchased Cayman Chemical $60100
T2 sequence (P05979 25-600): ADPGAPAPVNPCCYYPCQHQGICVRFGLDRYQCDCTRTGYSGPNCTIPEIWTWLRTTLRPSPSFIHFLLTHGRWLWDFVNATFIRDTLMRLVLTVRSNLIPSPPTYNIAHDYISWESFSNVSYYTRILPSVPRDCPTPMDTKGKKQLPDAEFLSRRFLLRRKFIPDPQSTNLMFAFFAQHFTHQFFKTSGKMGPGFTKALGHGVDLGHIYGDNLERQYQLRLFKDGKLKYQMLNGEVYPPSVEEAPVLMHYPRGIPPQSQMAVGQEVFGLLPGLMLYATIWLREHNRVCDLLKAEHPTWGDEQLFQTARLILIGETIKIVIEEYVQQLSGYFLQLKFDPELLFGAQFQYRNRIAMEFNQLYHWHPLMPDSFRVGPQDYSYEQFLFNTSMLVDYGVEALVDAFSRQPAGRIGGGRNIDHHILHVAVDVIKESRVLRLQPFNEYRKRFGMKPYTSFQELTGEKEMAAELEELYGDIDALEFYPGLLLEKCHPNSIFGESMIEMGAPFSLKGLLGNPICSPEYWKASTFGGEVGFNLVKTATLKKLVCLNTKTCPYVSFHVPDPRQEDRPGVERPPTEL
Protocol: General Prodecure—Oxygen-free 1.0M Tris-HCl buffer (pH 8.0) was prepared as follows: In a 1000 mL beaker, 12.11 g Trizma HCl was dissolved into 900 mL ultra-pure water. The beaker was placed on a stir plate with a stir bar. NaOH was added until the pH reached 8.0. The volume was adjusted to a final volume of 100 mL and stored in a 1000 mL storage bottle.
The Tris-HCl buffer was placed into a vacuum chamber with the top loosened and the air pump was turned on until the buffer stopped bubbling. The vacuum chamber was then turned off and the storage bottle was tightly covered. This steps was repeated each time when oxygen-free Tris-HCl buffer was used.
One mL cofactor solution was prepared by adding 1.3 mg (−) epinephrine, 0.3 mg reduced glutathione and 1.3 mg hematin to 1 mL oxygen free Tris-HCl buffer. The solutions of the test material were prepared as needed, i.e., 10 mg of aspirin was weighed and dissolved into 1 mL DMOS. Enzymes, i.e., prostaglandin E2 or prostaglandin F2alpha, were dissolved in oxygen free Tris-HCl buffer as follows, i.e., on ice, 6.5 μL of enzyme at 40,000 units/mL was taken and added to 643.5 μL of oxygen free Tris-HCl buffer. This enzyme solution is enough for 60 reactions. The COX-1 enzyme solution was prepared as follows: In a 15 mL centrifuge tube, 10 μL centrifuge tube, 10 μL COX-1 enzyme at 40,000 units/mL was added to oxygen free Tris-HCl with 50 μL of the cofactor solution per reaction. The mixture was incubated on ice for five minutes (i.e., for 60 reactions add 65 μL enzyme in oxygen free Tris-HCl buffer with 3.25 mL cofactor solution.
Sixty microliters of the enzyme solution were combined with 20 mL of the test solution in each well of a 96 well plate. […] The plates were preincubated on ice for 10 minutes. Twenty μL arachidonic acid (30 μM) was added and incubated for 15 minutes at 37° C.
The reaction was terminated by adding 10 μL 2 M HCl. The final solution was used as the supernatant for the PGE2 assay.
General Procedure—EIA Buffer was prepared by diluting the contents of the EIA Buffer Concentrate (vial #4) with 90 ml of Ultra-pure water. […]

[1] = RAW 264.7 cell model, read-out: COX-2 IC50 (converted)
[2] = second component alone, PGE2 production by COX-2, RAW 264.7 cells, 24 h LPS, read-out: Second Component IC50 (converted)

| SMILES | IC50 (COX-2; [1]) [µM] | IC50 (COX-2; [2]) [µM] | other results |
| --- | --- | --- | --- |
| CC(=O)Oc1ccccc1C(=O)O [aspirin] |  |  | COX-2 specificity (COX-2 over COX-1): 0.6 |
| C[C@H]1[C@H](C)CC[C@]2(C(=O)O)CC[C@]3(C)C(=CC[C@@H]4[C@@]5(C)CC[C@H](O)C(C)(C)[C@@H]5CC[C@]43C)[C@H]12 [Ursolic Acid, Ursolic acid] | 130 | 171 |  |
| C=C1CC[C@@H]2[C@](C)(CO)[C@H](O)CC[C@@]2(C)[C@@H]1C/C=C1/C(=O)OC[C@H]1O [Andrographolide] | 819 | 591 | SPECIFICITY COX-1/COX-2 (COX-2; ratio COX-1 IC50 / COX-2 IC50): 5.2; IC50 (COX-1 enzyme (ovine); ovine COX-1 enzyme, read-out: COX-1 IC50 (converted)): ~4280 µM and 4280 µM |
| COc1cc(/C=C/C(=O)CC(=O)/C=C/c2ccc(O)c(OC)c2)ccc1O [Curcumin] |  |  | IC50 (COX-1 enzyme (ovine); COX-1 IC50, ovine COX-1 enzyme): 34.2 µM |
